Assay results taken from ChEMBL document CHEMBL1132245, “Novel and potent 6-chloro-3-pyridinyl ligands for the alpha4beta2 neuronal nicotinic acetylcholine receptor” (J Med Chem, 1999).

Key:
Format in all cases: protein-complex assay
[1] = target: T1, Neuronal acetylcholine receptor; alpha4/beta2 (Rattus norvegicus, UniProt P09483+P12390); assay: Inhibition of [3H](-)-nicotine binding to recombinant rat alpha4-beta2 nAChR.
[2] = target: T1, Neuronal acetylcholine receptor; alpha4/beta2; assay: Inhibition of [3H](-)-nicotine binding to recombinant rat alpha4-beta2 nAChR was determined; experiment 2
[3] = target: T1, Neuronal acetylcholine receptor; alpha4/beta2; assay: Inhibition of [3H](-)-nicotine binding to recombinant rat alpha4-beta2 nAChR was determined; experiment 1

T1 sequence (P09483 whole entry): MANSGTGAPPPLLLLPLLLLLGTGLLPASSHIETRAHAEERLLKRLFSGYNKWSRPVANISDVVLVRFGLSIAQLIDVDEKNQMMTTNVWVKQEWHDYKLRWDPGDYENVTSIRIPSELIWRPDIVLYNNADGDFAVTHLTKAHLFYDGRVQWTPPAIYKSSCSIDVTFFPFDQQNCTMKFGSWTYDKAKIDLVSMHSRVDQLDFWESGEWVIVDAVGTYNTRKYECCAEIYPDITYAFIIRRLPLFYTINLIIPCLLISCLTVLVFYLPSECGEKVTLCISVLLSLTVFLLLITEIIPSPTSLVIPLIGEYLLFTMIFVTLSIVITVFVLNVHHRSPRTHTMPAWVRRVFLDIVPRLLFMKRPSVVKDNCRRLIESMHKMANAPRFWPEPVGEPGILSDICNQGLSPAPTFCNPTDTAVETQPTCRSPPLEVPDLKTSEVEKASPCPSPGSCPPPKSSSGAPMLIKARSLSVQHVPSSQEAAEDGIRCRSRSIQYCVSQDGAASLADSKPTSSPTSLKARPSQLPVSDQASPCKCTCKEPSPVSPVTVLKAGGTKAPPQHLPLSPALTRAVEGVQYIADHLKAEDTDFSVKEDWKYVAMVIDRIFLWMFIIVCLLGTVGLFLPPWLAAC
T1 sequence (P12390 whole entry): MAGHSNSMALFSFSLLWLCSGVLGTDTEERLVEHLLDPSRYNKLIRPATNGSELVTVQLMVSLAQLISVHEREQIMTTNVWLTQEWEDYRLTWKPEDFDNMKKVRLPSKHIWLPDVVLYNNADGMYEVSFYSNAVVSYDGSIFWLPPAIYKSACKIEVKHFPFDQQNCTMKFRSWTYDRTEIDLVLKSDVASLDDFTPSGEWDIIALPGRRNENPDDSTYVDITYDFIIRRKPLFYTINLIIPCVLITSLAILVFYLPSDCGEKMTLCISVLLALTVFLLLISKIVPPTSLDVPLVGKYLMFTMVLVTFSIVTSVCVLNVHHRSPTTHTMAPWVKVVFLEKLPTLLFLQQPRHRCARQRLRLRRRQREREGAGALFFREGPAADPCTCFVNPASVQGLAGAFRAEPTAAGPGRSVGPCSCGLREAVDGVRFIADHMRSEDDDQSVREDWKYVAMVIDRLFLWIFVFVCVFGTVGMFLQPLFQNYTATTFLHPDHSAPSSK

SMILES | IC50 [1] | IC50 [2] | IC50 [3]
Clc1ccc(Cn2ccnc2)cn1 | 0.45 µM |  | 
NC1=NCCCS1 | 160 µM |  | 
Clc1ccc(CN2CCN(Cc3ccc(Cl)nc3)CC2)cn1 |  | 1.65 µM | 1.74 µM
SC1=NCCN1Cc1ccc(Cl)nc1 |  | 13.5 µM | 12.6 µM
NC1=NCCO1 |  | 95.3 µM | 99.5 µM
CN1CCCC1c1ccc(Cl)nc1 (stereo not drawn) | 0.0019 µM |  | 
CN1CCCC1c1cccnc1Cl (stereo not drawn) | 3.2 µM |  | 
O=C1NCCN1Cc1ccc(Cl)nc1 | 8.1 µM |  | 
CCN(Cc1ccc(Cl)nc1)C(=N)NC | 3.3 µM |  | 
N=C1NCCN1Cc1ccc(Cl)nc1 [DESNITROIMIDACLOPRID] | 0.006 µM |  | 
